Here are results for 26 compounds from ChEMBL document CHEMBL3758171 (Bioorg Med Chem, 2016).

Each structure is given as a SMILES string.

In test [1] the target is Carbonic anhydrase 12 (Homo sapiens, UniProt O43570). The test can be described thus: Inhibition of human recombinant carbonic anhydrase 12 preincubated for 15 mins by stopped flow CO2 hydration assay.
Test [2] concerns the target Carbonic anhydrase 2 (Homo sapiens, UniProt P00918). The test can be described thus: Inhibition of human recombinant carbonic anhydrase 2 preincubated for 15 mins by stopped flow CO2 hydration assay.
The target of test [3] is Carbonic anhydrase 9 (Homo sapiens, UniProt Q16790).
Test [4] addresses Carbonic anhydrase 1 (Homo sapiens, UniProt P00915). The test can be described thus: Inhibition of human recombinant carbonic anhydrase 1 preincubated for 15 mins by stopped flow CO2 hydration assay.

Carbonic anhydrase 12, sequence (O43570 whole entry): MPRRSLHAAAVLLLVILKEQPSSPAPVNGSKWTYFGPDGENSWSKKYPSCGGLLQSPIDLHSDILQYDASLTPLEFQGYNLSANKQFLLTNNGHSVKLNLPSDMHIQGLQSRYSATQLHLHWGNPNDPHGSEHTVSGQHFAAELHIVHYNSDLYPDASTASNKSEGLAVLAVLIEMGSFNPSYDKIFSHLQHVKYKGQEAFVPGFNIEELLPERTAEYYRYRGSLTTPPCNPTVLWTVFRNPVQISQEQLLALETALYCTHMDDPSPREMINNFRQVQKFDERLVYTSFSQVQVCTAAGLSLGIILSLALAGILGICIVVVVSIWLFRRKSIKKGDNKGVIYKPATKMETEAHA
Carbonic anhydrase 1, sequence (P00915 whole entry): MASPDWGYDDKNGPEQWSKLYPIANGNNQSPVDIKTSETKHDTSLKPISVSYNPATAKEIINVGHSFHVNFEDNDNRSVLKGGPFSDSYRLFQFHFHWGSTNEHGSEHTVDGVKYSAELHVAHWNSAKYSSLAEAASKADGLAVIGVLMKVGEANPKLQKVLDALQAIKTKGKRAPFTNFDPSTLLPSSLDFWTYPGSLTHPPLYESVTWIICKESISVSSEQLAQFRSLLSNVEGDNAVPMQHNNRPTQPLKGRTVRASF

For `O=C1c2ccccc2S(=O)(=O)N1Cc1ccc([N+](=O)[O-])cc1`, the inhibition constant Ki (commonly a dissociation constant, usually derived from enzyme kinetics or from competition with a known ligand) in test [1] is 29 nM; in test [2] it was over 10000 nM; in test [3] it was 1170 nM.

In the case of `COc1cccc(C(=O)CN2C(=O)c3ccccc3S2(=O)=O)c1`, the Ki in test [1] is 6 nM; in test [2] it was over 10000 nM; in test [3] it was 1570 nM.

As to `O=C(O)CN1C(=O)c2ccccc2S1(=O)=O`, the inhibition constant (Ki) in test [2] was found to be 78000 nM; in test [4], 110000 nM.

Consider `Cc1cccc(CN2C(=O)c3ccccc3S2(=O)=O)c1`, for which the inhibitory constant (Ki) in test [1] was 26 nM; in test [2] it was over 10000 nM; in test [3] it was 184 nM.

For `CC1=CC(OCC(=O)c2ccc(Br)cc2)=NS(=O)(=O)O1`, the inhibitory constant (Ki) in test [1] is 3.6 nM; in test [2], over 10000 nM; in test [3] it was 196 nM.

As for `O=C1c2ccccc2S(=O)(=O)N1Cc1ccc(F)cc1`, the Ki was 41 nM in test [1], over 10000 nM in test [2] and 539 nM in test [3].

Regarding `COc1cccc(C(=O)CN2C(=O)C=C(C)OS2(=O)=O)c1`, the values for the Ki in test [1], in test [2] and in test [4] were 5.6 nM, over 10000 nM and over 10000 nM, respectively.

Turning to `CC1=CC(=O)N(CC(=O)c2ccc(-c3ccccc3)cc2)S(=O)(=O)O1`, the inhibition constant Ki in test [1] was 4 nM; in test [2] it was over 10000 nM; in test [4], over 10000 nM; in test [3] it was 26 nM.

In the case of `O=C1c2ccccc2S(=O)(=O)N1Sc1ccccc1[N+](=O)[O-]`, the Ki in test [1] was 4 nM; in test [2], over 10000 nM; in test [4] it was over 10000 nM; in test [3], 18 nM.

As to `CC1=CC(=O)N(Cc2ccc(Cl)cc2)S(=O)(=O)O1`, the Ki in test [1] is 4.5 nM; in test [2], over 10000 nM; in test [4], over 10000 nM; in test [3], 239 nM.

`O=C1c2ccccc2S(=O)(=O)N1Cc1ccc(C(F)(F)F)cc1`: the values for the Ki in test [1], in test [2] and in test [3] were 4.7 nM, over 10000 nM and 51 nM, respectively.

Consider `CC1=CC(=O)N(Cc2ccc([N+](=O)[O-])cc2)S(=O)(=O)O1`, for which the Ki in test [1] is 4.3 nM; in test [2] it was over 10000 nM; in test [4], over 10000 nM; in test [3], 210 nM.

Consider `Cc1ccccc1CN1C(=O)c2ccccc2S1(=O)=O`, for which the Ki in test [1] was 16 nM; in test [2] it was over 10000 nM; in test [4], 1370 nM; in test [3], 221 nM.

Regarding `O=C1NCc2ccccc21`, the inhibition constant (Ki) in test [1] is 4.1 nM; in test [2], over 10000 nM; in test [4] it was over 10000 nM; in test [3], 174 nM.

Turning to `O=C1c2ccccc2S(=O)(=O)N1Cc1ccccc1C(F)(F)F`, the Ki was 15 nM in test [1], over 10000 nM in test [2] and 616 nM in test [3].

`O=C(O)CN1C(=O)c2ccccc2C1=O`: the inhibition constant (Ki) was 4.3 nM in test [1], over 10000 nM in test [2], over 10000 nM in test [4] and 223 nM in test [3].

Regarding `O=C1c2ccccc2S(=O)(=O)N1Cc1ccc(Br)cc1`, the inhibition constant (Ki) in test [1] is 4.3 nM; in test [2], over 10000 nM; in test [4] it was over 10000 nM; in test [3], 22 nM.

In the case of `CC1=CC(=O)N(Cc2ccc(F)cc2)S(=O)(=O)O1`, the inhibition constant (Ki) in test [1] was 4.9 nM; in test [2], over 10000 nM; in test [4], over 10000 nM; in test [3], 261 nM.

Consider `O=C1c2ccccc2S(=O)(=O)N1Cc1cccc(C(F)(F)F)c1`, for which the inhibitory constant (Ki) in test [1] is 17 nM; in test [2], over 10000 nM; in test [4] it was over 10000 nM; in test [3] it was 19 nM.

For the compound `CC1=CC(=O)N(CC(=O)c2ccc([N+](=O)[O-])cc2)S(=O)(=O)O1`, the values for the Ki in test [1], in test [2] and in test [3] were 3.9 nM, 1750 nM and 2480 nM, respectively.

In the case of `CC1=CC(=O)N(CC(=O)c2ccc(C#N)cc2)S(=O)(=O)O1`, the figures for the Ki in test [1], in test [2] and in test [3] were 4.1 nM, 140 nM and 27 nM, respectively.

Take `CC1=CC(OCC(=O)c2ccc(Cl)cc2Cl)=NS(=O)(=O)O1`: the Ki is 5.5 nM in test [1], over 10000 nM in test [2], over 10000 nM in test [4] and 265 nM in test [3].

For the compound `Cc1ccc(CN2C(=O)c3ccccc3S2(=O)=O)cc1`, the Ki in test [1] was 5.1 nM; in test [2] it was over 10000 nM; in test [4] it was over 10000 nM; in test [3], 234 nM.

Take `O=C1c2ccccc2S(=O)(=O)N1Cc1ccc(Cl)cc1`: the inhibition constant (Ki) in test [1] was 4.4 nM; in test [2], over 10000 nM; in test [3] it was 19 nM.

For the compound `O=C(CN1C(=O)c2ccccc2S1(=O)=O)c1ccc(Cl)cc1Cl`, the Ki in test [1] was 3.9 nM; in test [2], over 10000 nM; in test [4], 1480 nM; in test [3], 191 nM.

Turning to `O=C(CN1C(=O)c2ccccc2S1(=O)=O)c1ccc(F)cc1`, the inhibition constant (Ki) is 41 nM in test [1], over 10000 nM in test [2], 1110 nM in test [4] and 23 nM in test [3].
